Data taken from patent US9896662B2, “Process for enhancing stem cell bioactivity using tauroursodeoxycholic acid” (Pusan National University Industry—University Cooperation …, priority 2014, dated 2018).

What was measured:
[1] = tested on: CD34+ cells on bone marrow stromal cells; experiment: adhesion and dissociation of CD34+ cells on bone marrow stromal cells (fluorescence microscope count); type: cell-based; conditions: TUDCA 50, 100 μM, incubated 1 hour, compared with the control
Protocol: When ischemic damage occurs, for vascular repair, a process in which angiogenic stem cells integrated with bone marrow stromal cells are dissociated from bone marrow and transported to ischemic tissue first occurs in the vascular repair mechanism. In order to confirm a change in dissociation of angiogenic stem cells from bone marrow stromal cells by TUDCA, CD34^+ cells stained with CM-DiI (staining red), which were treated with TUDCA (0, 50, 100 μM), were incubated for 1 hour on glass slides in which bone marrow stromal cells were seeded. The number of CD34^+ cells adhered to or dissociated from bone marrow stromal cells was counted by a fluorescence microscope (FIGS. 1a, 1b, and 1c). AMD3100, a CXCR4 antagonist, was used as a positive control.

[2] = tested on: angiogenic stem cells and cell populations in peripheral blood; experiment: oral administration to healthy subjects: cell populations mobilized to peripheral blood; type: in vivo, human; conditions: 5 mg/kg oral for 3 days
Protocol: Upon oral administration of TUDCA to healthy subjects, angiogenic stem cells and various cell populations, which were mobilized to peripheral blood, were confirmed and differentiation potential into functional endothelial progenitor cells was verified using peripheral blood. 5 mg/kg of TUDCA was orally administered to healthy subjects for 3 days, and the expression of angiogenic stem cell markers was examined.

[3] = tested on: hindlimb ischemic tissue; experiment: mouse hindlimb ischemia model, oral TUDCA; type: in vivo; conditions: 20 mg/kg oral every day
Protocol: TUDCA was applied to mouse disease models based on the above experiments, to verify the effects. Mouse hindlimb ischemia model, which is one of the disease animals, for verifying vascular repair capability was prepared. Thereafter, 20 mg/kg of TUDCA was orally administered to mice every day, to confirm vascular repair capability over time. […] In order to confirm whether angiogenic stem cells were mobilized by TUDCA to hindlimb ischemic tissue, hindlimb ischemic tissue was removed 3 days after the preparation of the hindlimb ischemia models, and flow cytometry was performed using an angiogenic stem cell marker. As a result, it was confirmed that the number of angiogenic stem cells in ischemic tissue increased in the group to which TUDCA was orally administered (FIG. 7c). In order to confirm angiogenesis by TUDCA, hindlimb ischemic tissue was removed 14 days after the preparation of the hindlimb ischemia models and subjected to immunofluorescent staining, to verify capillary density and arteriole density.

[4] = tested on: Human arterial endothelial cells (HAECs) mixed with angiogenic stem cells; experiment: tube formation assay of HAECs mixed with angiogenic stem cells; type: cell-based; conditions: TUDCA 50 μM
Description: It is the most significant process in the vascular recovery mechanism that angiogenic stem cells mobilized from bone marrow are integrated with vascular endothelial cells preexisting in damaged tissue, to generate new blood vessels through interaction. Human arterial endothelial cells (HAECs) were mixed with angiogenic stem cells, and then the integration capability between the two cells was examined by tube formation assay.

[5] = tested on: CD34+ HSCs; experiment: EPC colony forming capability of CD34+ HSCs (differentiation into the EPC lineage); type: cell-based
Description: (§1) Meanwhile, in order to clarify the impact of TUDCA on CD34^+ HSC differentiation into the EPC lineage, the EPC colony forming capability of CD34^+ HSCs was examined. As a result, it was confirmed that the EPC colony forming capability was enhanced by TUDCA (FIG. 4e). Further, as Akt activation via PI3-kinase increases differentiation of CD34^+ HSCs into the EPC lineage, it was examined whether TUDCA activates Akt in CD34^+ HSC. As a result, it was confirmed that TUDCA increased Akt phosphorylation, and the exposure to LY294002, a PI3K inhibitor, inhibited TUDCA-mediated CD34^+ HSC differentiation into the EPC lineage (FIG. 4f).

[6] = tested on: angiogenic stem cells in peripheral blood; experiment: Hill's assay of cell populations mobilized to peripheral blood; type: in vivo; conditions: oral, mice; concentration and time-dependent
Protocol: (§2) When TUDCA was orally administered, a variety of cell populations are mobilized to peripheral blood. After orally administering TUDCA to mice, the cell populations were analyzed by Hill's assay. As a result, it was confirmed that the number of angiogenic stem cells increased in TUDCA concentration and time-dependent manner (FIGS. 4a and 4b). In order to confirm side effects caused by mobilization of cell populations associated with immunity and inflammation, other than angiogenic stem cells, upon treatment with TUDCA, the change in the number of leukocytes, lymphocytes, monocytes, and granulocytes in peripheral blood was confirmed by complete blood cell (CBC) count. […] Also, it was confirmed that […] are EPCs by confirming the uptake of acetyl-LDL and FITC-isolectin B4 (FIG. 4d).

[7] = tested on: CD44, Jagged-1, N-cadherin, VLA5, CXCR4, c-kit, and Notch in EPCs; experiment: mRNA expression levels of cell adhesion molecules in EPCs; type: cell-based
Description: (§3) Further, as the first step of integration with vascular endothelial cells is cell adhesion, mRNA expression levels of cell adhesion molecules in HAECs and EPCs were examined.

[8] = tested on: ICAM, Jagged1, N-cadherin, LFA1, and c-kit; experiment: mRNA expression of cell adhesion factors in CD34+ cells; type: cell-based; conditions: TUDCA 50 μM for 5 hours
Protocol: Based thereon, a change in mRNA expression of cell adhesion factors involved in cell adhesion was confirmed. After treating CD34^+ cells with TUDCA (50 μM) for 5 hours, mRNA expression of ICAM, Jagged′, N-cadherin, LFA1, and c-kit, which are involved in cell adhesion, was confirmed.

[9] = tested on: angiogenic stem cells; experiment: proliferation capability of angiogenic stem cells; type: cell-based; conditions: 50 μM of TUDCA (tested 0, 10, 50, 100 μM)
Protocol: (§4) In order to confirm that the treatment with TUDCA involves enhancement of biological activity functions of angiogenic stem cells in addition to enhancement of mobilization and migration capabilities of angiogenic stem cells from bone marrow to peripheral blood and ischemic tissue, angiogenic stem cells were treated with different concentrations (0, 10, 50, 100 μM) of TUDCA. Then, various biological activity functions were evaluated. […] In order to confirm vascular differentiation potential, tube-forming capability was examined.

[10] = tested on: leukocytes, lymphocytes, monocytes, and granulocytes in peripheral blood; experiment: complete blood cell (CBC) count; type: in vivo; conditions: oral, mice, 10 mg/kg for 3 days
Protocol: as §2

[11] = tested on: angiogenic stem cells; experiment: infiltration capability of angiogenic stem cells; type: cell-based; conditions: 50 μM of TUDCA
Protocol: as §4

[12] = tested on: senescent angiogenic stem cells (passages 13 to 16); experiment: β-galactosidase staining of senescent angiogenic stem cells; type: cell-based
Protocol: In order to use stem cells as a stem cell therapy product, it is important to obtain a sufficient number of stem cells in a healthy state. However, upon in vitro expansion of stem cells for obtaining a sufficient number of stem cells, repeated passages cause senescence of stem cells. In order to resolve this problem, angiogenic stem cells subjected to repeated passages (passages 13 to 16) were treated with TUDCA, to verify senescence inhibition. Senescent angiogenic stem cells were treated with TUDCA and subjected to β-galactosidase staining capable of confirming senescence, to confirm senescence recovery.

[13] = tested on: hindlimb ischemic tissue; experiment: hindlimb ischemia model in GFP bone marrow-transplanted mice, oral TUDCA; type: in vivo, GFP-BMT mice (C57BL/6); conditions: 20 mg/kg oral, GFP-BMT mice
Description: It is known that angiogenic stem cells are mainly present in bone marrow, but they are present in different tissues than bone marrow. In order to confirm whether angiogenic stem cells are derived from bone marrow by TUDCA and involved in vascular repair mechanism, bone marrow was isolated from green fluorescent protein (GFP) mice and transplanted into C57BL/6. Once bone marrow transplantation (BMT) mice are thus prepared, chimeric mice which show green fluorescence only for bone marrow cells are obtained. After preparing hindlimb ischemia animal models using GFP-BMT mice, TUDCA (20 mg/kg) was orally administered to verify vascular repair capability. […] In order to confirm angiogenesis by TUDCA, hindlimb ischemic tissue was removed 14 days after the preparation of the hindlimb ischemia models and subjected to immunofluorescent staining, to verify capillary and arteriole density. […] In order to confirm whether angiogenic stem cells were mobilized by TUDCA from bone marrow to hindlimb ischemic tissue, mobilization capability of angiogenic stem cells was examined by immunofluorescent staining using a bone marrow marker GFP, an angiogenic stem cell marker c-kit, a vascular marker ILB4, into which hindlimb ischemic tissue removed from the hindlimb ischemia models was transplanted 3 days after the preparation. […] In order to examine whether angiogenic stem cells mobilized by TUDCA from bone marrow differentiate into new blood vessels in hindlimb ischemic tissue, vascular differentiation potential of angiogenic stem cells was examined, through immunofluorescent staining and morphological analysis, using a bone marrow marker GFP, a marker of vascular differentiation VEGFR, a vascular marker ILB4, into which hindlimb ischemic tissue removed from the hindlimb ischemia models was transplanted 14 days after the preparation.

[14] = tested on: angiogenic stem cells (CD34+/Sca1+) in peripheral blood; experiment: FACS analysis of angiogenic stem cells in peripheral blood after oral administration; type: in vivo; conditions: 10 mg/kg oral, C57BL/6 mice, day 0, 1, 3
Protocol: (§5) In order to confirm mobilization capability of angiogenic stem cells, which were dissociated from bone marrow stromal cells, to peripheral blood, CD34^+ hematopoietic stem cells (HSCs) were treated with various concentrations of TUDCA (0, 10, 50, 100 μM), to confirm the cell migration capability by trans-well assay. […] Based on the result, TUDCA (10 mg/kg) was orally administered to C57BL/6 mice, and the number of angiogenic stem cells (CD34^+/Sca1^+) in peripheral blood were analyzed by FACS analysis over time (at day 0, 1, 3).

[15] = tested on: CD34+ hematopoietic stem cells (HSCs); experiment: trans-well assay of cell migration capability; type: cell-based; conditions: TUDCA 0, 10, 50, 100 μM; concentration-dependent
Protocol: as §5

[16] = tested on: Akt; experiment: Akt activation in CD34+ HSC; type: cell-based
Description: as §1

[17] = tested on: senescent angiogenic stem cells; experiment: nitric oxide and reactive oxygen species in senescent angiogenic stem cells; type: cell-based; conditions: senescent angiogenic stem cells treated with TUDCA
[18] = tested on: angiogenic stem cells; experiment: tube-forming capability of angiogenic stem cells; type: cell-based; conditions: TUDCA 0, 10, 50, 100 μM; concentration-dependent
Protocol: as §4

[19] = tested on: CD44, N-cadherin, c-kit, and LFA1 in HAECs; experiment: mRNA expression levels of cell adhesion molecules in HAECs; type: cell-based, Human
Description: as §3

[20] = day 14, immunofluorescent staining

C[C@H](CCC(=O)NCCS(=O)(=O)O)[C@H]1CC[C@H]2[C@@H]3[C@@H](O)C[C@@H]4C[C@H](O)CC[C@]4(C)[C@H]3CC[C@]12C [TUDCA, tauroursodeoxycholic acid]
number of CD34+ cells adhered to the stromal cells [1]: significantly decreased | number of CD34+ cells dissociated from the stromal cells [1]: significantly increased | colony forming capability (EPC-CFA) [2]: significantly increased | distribution of granulocytes involved in inflammatory response [2]: significantly decreased | expression of angiogenic stem cell markers CD34, CD31, and c-kit [2]: significantly increased | blood flow improvement (LDPI assay) [3]: significantly increased | number of angiogenic stem cells in ischemic tissue (flow cytometry) ([3]; day 3): increased | number of arterioles [3, 20]: significantly increased | number of capillaries [3, 20]: significantly increased | tube formation capability [4]: significantly increased | EPC colony forming capability of CD34+ HSCs [5]: enhanced | number of angiogenic stem cells (Hill's assay) [6]: increased | mRNA expression levels of CD44, Jagged-1, N-cadherin, VLA5, CXCR4, c-kit, and Notch [7]: significantly increased | mRNA expression of cell adhesion factors (ICAM, Jagged1, N-cadherin, LFA1, c-kit) [8]: significantly decreased | proliferation capability of angiogenic stem cells [9]: most significantly increased | number of granulocytes involved in inflammatory response [10]: significantly decreased | infiltration capability of angiogenic stem cells [11]: most significantly increased | number of β-galactosidase positive cells [12]: significantly increased | blood flow (LDPI assay) [13]: significantly improved | number of angiogenic stem cells derived from bone marrow into ischemic tissue ([13]; day 3, GFP/c-kit/ILB4 staining): significantly increased | number of arterioles ([13]; day 14): significantly increased | number of capillaries ([13]; day 14): significantly increased | number of bone marrow-derived angiogenic stem cells differentiated into vascular endothelial cells ([13]; day 14, GFP/VEGFR/ILB4 staining): significantly increased | number of angiogenic stem cells (CD34+/Sca1+) in peripheral blood [14]: significantly increased | migration capability of CD34+ cells [15]: significantly increased | Akt phosphorylation [16]: increased | expression amount of nitric oxide [17]: significantly increased | expression amount of reactive oxygen species [17]: significantly decreased | tube-forming capability of angiogenic stem cells [18]: significantly increased | mRNA expression levels of CD44, N-cadherin, c-kit, and LFA1 [19]: significantly increased
